Measured values published in patent US20230219892A1, “FORMS AND COMPOSITIONS OF A BETA ADRENERGIC AGONIST” (Curasen Therapeutics, Inc., priority 2020, published 2023).
Values after ≈ are worked out from the molar mass of the structure shown. Read-outs that look alike come from different tables or passages of the source.

Legend:
[1] = Dynamic vapor sorption (DVS) moisture sorption/desorption; type: physicochemical; conditions: for XRPD pattern after DVS testing: after DVS full cycle
Protocol: Moisture sorption/desorption data was collected on a DVS Intrinsic (SMS, UK). The sample was placed into a tared sample chamber and automatically weighed. The sample was dried at 40° C. until the dm/dt was less than 0.002% and cooled to 25° C. The instrument parameters were set as detailed below. Step time (min): 60 min; Sample temperature: 25° C.; Cycle: Full cycle; Adsorption: 0, 10, 20, 30, 40, 50, 60, 70, 80, 90; Desorption: 80, 70, 60, 50, 40, 30, 20, 10, 0; Save Data Rate: 5 s; Total flow rate: 200 sccm; Post experiment total flow: 200 sccm.

[2] = Solubility testing in biorelevant media (SGF, FaSSIF, FeSSIF) and water, shaken at 37° C. for up to 24 hours; type: physicochemical; conditions: for solubility / solubility at 0.5 h: 37 °C, thermodynamic from solid; for solubility / solubility at 0.5 h / Solubility (mg/mL) 0.5 h: 37° C.; for solubility at 0.5 h: read-out: Solubility (mg/mL) 0.5 h; for time until dissolved in each medium: shaking at 37° C., about 15 mg in 3 mL of each of the 4 media
Protocol: (§1) HPLC analysis was performed with an Agilent HPLC 1260 series instrument.
Compound 1 Form A, Compound 2 Form A and Compound 9 Form A were tested for stability in three biorelevant media and water at 37° C. for 0.5, 2 and 24 hours. About 15 mg of Compound 1 Form A, Compound 2 Form A and Compound 9 Form A were weighted into four separate vials each and to each set of vials was added 3 mL of one of the following biorelevant media: simulated gastric […] fluid (SGF), fasted state simulated intestinal fluid (FaSSIF), fed state simulated intestinal fluid (FeSSIF), and water. All samples were shaken at 200 rpm at 37° C. for up to 24 hours. […] Compound 9 Form A dissolved in each medium after about 15 minutes of shaking at 37° C. Compound 1 Form A dissolved in each medium over the course of about 2 hours of shaking at 37° C. […] The results of the solubility test are summarized below in Table 18: […]

[3] = Solid stability at 60° C. and 40° C./75%RH for 7 days (purity by HPLC, solid form); type: physicochemical; conditions: for Purity @ 0 d (Area%): start of solid stability test; for Purity @ 0 d (Area%) / Purity @ 7 d (Area%) 40° C./75%RH / Purity @ 7 d (Area%) 60° C.: HPLC; for Purity @ 7 d (Area%) 40° C./75%RH / Solid form @ 7 d 40° C./75%RH: 7 d at 40° C./75%RH; for Purity @ 7 d (Area%) 60° C. / Solid form @ 7 d 60° C.: 7 d at 60° C.
Protocol: as §1
Solid stability of Compound 1 Form A, Compound 2 Form A and Compound 9 Form A were evaluated at 60° C. and 40° C./75%RH for 7 days. Purity was determined via HPLC. […] All tested compounds retained the same solid form after the 7-day experiment.

[4] = Estimated solubility test: medium added stepwise at rt until the solid dissolved; type: physicochemical; conditions: for solubility: thermodynamic from solid
Protocol: As all of the samples dissolved after about 2 hours, estimated solubility testing was conducted, wherein about 5 mg of Compound 1 Form A, Compound 2 Form A and Compound 9 Form A were weighed into four separate vials each and each media was added stepwise while stirring at rt until the solid dissolved.

[5] = Blood-brain barrier crossing and accumulation in cerebral spinal fluid (statement, no method given)
β2 adrenergic receptor = β2 adrenergic receptor (Homo sapiens, UniProt P07550); test: Agonism of the β2 adrenergic receptor (statement, no method given)
[6] = FaSSIF, fassif, FaSSIF, shaken 200 rpm, 2 and 24 h, read-out: Solubility (mg/mL) 2 and 24 h
[7] = FaSSIF, fassif, FaSSIF, shaken 200 rpm
[8] = FeSSIF, fessif, FeSSIF, shaken 200 rpm, 2 and 24 h, read-out: Solubility (mg/mL) 2 and 24 h
[9] = FeSSIF, fessif, FeSSIF, shaken 200 rpm
[10] = SGF, simulated gastric fluid, SGF, shaken 200 rpm, 2 and 24 h, read-out: Solubility (mg/mL) 2 and 24 h
[11] = SGF, simulated gastric fluid, SGF, shaken 200 rpm
[12] = water, water, Water, shaken 200 rpm, 2 and 24 h, read-out: Solubility (mg/mL) 2 and 24 h
[13] = water, water, Water, shaken 200 rpm
[14] = SGF, FaSSIF, FeSSIF and water, SGF, FaSSIF, FeSSIF and water, about 15 mg in 3 mL, read-out: solubility in each medium

Sequence of β2 adrenergic receptor (P07550 whole entry): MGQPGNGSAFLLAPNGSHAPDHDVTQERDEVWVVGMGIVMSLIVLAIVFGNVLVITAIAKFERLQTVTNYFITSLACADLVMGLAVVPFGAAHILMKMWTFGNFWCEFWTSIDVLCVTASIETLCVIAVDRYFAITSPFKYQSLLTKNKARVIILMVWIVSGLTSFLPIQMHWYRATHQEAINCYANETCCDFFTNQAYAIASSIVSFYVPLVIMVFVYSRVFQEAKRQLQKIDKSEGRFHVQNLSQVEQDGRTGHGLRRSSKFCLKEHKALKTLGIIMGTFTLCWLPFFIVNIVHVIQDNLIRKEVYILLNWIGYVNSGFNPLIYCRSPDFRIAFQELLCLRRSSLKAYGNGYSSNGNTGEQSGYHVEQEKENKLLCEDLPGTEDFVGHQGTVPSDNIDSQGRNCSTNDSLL

SMILES: CC(C)(C)NC[C@H](O)c1cccc(C#N)n1 [Compound 9]
- water uptake at 80%RH ([1]; DVS, 25° C.): 1.05%
- XRPD pattern after DVS testing [1]: remained unchanged
- solubility [2, 6]: > 5 mg/mL
- solubility at 0.5 h [2, 7]: > 5 mg/mL
- solubility [2, 8]: > 5 mg/mL
- solubility at 0.5 h [2, 9]: > 5 mg/mL
- solubility [2, 10]: > 5 mg/mL
- solubility at 0.5 h [2, 11]: > 5 mg/mL
- pH 24 h ([2]; pH of solubility sample in FaSSIF at 24 h (control 6.53), listed as Compound 9 Form A): 6.51
- pH 24 h ([2]; pH of solubility sample in FeSSIF at 24 h (control 5.01), listed as Compound 9 Form A): 5.01
- pH 24 h ([2]; pH of solubility sample in SGF at 24 h (control 1.19), listed as Compound 9 Form A): 1.18
- pH 24 h ([2]; pH of solubility sample in water at 24 h (control 5.26), listed as Compound 9 Form A): 5.68
- time until dissolved in each medium ([2]; listed as Compound 9 Form A): About 15 minutes
- solubility [2, 12]: > 5 mg/mL
- solubility at 0.5 h [2, 13]: > 5 mg/mL
- Purity @ 0 d (Area%) ([3]; listed as Compound 9 Form A): 98.62% Area%
- Purity @ 7 d (Area%) 40° C./75%RH ([3]; listed as Compound 9 Form A): 98.49% Area%
- Purity @ 7 d (Area%) 60° C. ([3]; listed as Compound 9 Form A): 98.62% Area%
- Solubility (mg/mL) FaSSIF ([4]; FaSSIF, listed as Compound 9 Form A): >71.4 mg/mL
- Solubility (mg/mL) FeSSIF ([4]; FeSSIF, listed as Compound 9 Form A): >101.4 mg/mL
- Solubility (mg/mL) SGF ([4]; SGF, listed as Compound 9 Form A): >71.4 mg/mL
- Solubility (mg/mL) Water ([4]; water, listed as Compound 9 Form A): >71.3 mg/mL

SMILES: CC(C)(C)NC[C@H](O)c1cccc(C#N)n1.Cl [Compound 2]
- water uptake at 80%RH ([1]; DVS, 25° C.): 0.58%
- XRPD pattern after DVS testing [1]: remained unchanged
- solubility [2, 6]: > 5 mg/mL
- solubility at 0.5 h [2, 7]: > 5 mg/mL
- solubility [2, 8]: > 5 mg/mL
- solubility at 0.5 h [2, 9]: > 5 mg/mL
- solubility [2, 10]: > 5 mg/mL
- solubility at 0.5 h [2, 11]: > 5 mg/mL
- solubility [2, 14]: > 5 mg/mL
- dissolution in each of the 4 media ([2]; at rt, about 15 mg in 3 mL): dissolved immediately
- pH 24 h ([2]; pH of solubility sample in FaSSIF at 24 h (control 6.53)): 6.47
- pH 24 h ([2]; pH of solubility sample in FeSSIF at 24 h (control 5.01)): 5.01
- pH 24 h ([2]; pH of solubility sample in SGF at 24 h (control 1.19)): 1.11
- pH 24 h ([2]; pH of solubility sample in water at 24 h (control 5.26)): 5.24
- solubility [2, 12]: > 5 mg/mL
- solubility at 0.5 h [2, 13]: > 5 mg/mL
- Purity @ 0 d (Area%) [3]: 99.27% Area%
- Solid form @ 7 d 40° C./75%RH [3]: unchanged
- Purity @ 7 d (Area%) 40° C./75%RH [3]: 99.27% Area%
- Solid form @ 7 d 60° C. [3]: unchanged
- Purity @ 7 d (Area%) 60° C. [3]: 99.25% Area%
- solubility ([4]; FaSSIF, FaSSIF, read-out: Solubility (mg/mL) FaSSIF): > 100 mg/mL
- solubility ([4]; FeSSIF, FeSSIF, read-out: Solubility (mg/mL) FeSSIF): > 100 mg/mL
- solubility ([4]; SGF, simulated gastric fluid, SGF, read-out: Solubility (mg/mL) SGF): > 101 mg/mL
- solubility ([4]; water, water, read-out: Solubility (mg/mL) Water): > 102 mg/mL

SMILES: CC(C)(C)NC[C@H](O)c1cccc(C#N)n1 [Compound 1, (S)-6-(2-(tert-butylamino)-1-hydroxyethyl)picolinonitrile]
- ability to cross the blood-brain barrier and accumulate in the cerebral spinal fluid [5]: unexpectedly high ability to cross the blood-brain barrier
- Solubility (mg/mL) 0.5 h ([2]; FaSSIF, shaken 200 rpm, listed as Compound 1 Form A): 4.33 mg/mL (≈ 19.7 mM)
- Solubility (mg/mL) 0.5 h ([2]; FeSSIF, shaken 200 rpm, listed as Compound 1 Form A): 4.41 mg/mL (≈ 20.1 mM)
- Solubility (mg/mL) 0.5 h ([2]; SGF, shaken 200 rpm, listed as Compound 1 Form A): 4.76 mg/mL (≈ 21.7 mM)
- solubility [2, 14]: > 5 mg/mL
- Solubility (mg/mL) 0.5 h ([2]; Water, shaken 200 rpm, listed as Compound 1 Form A): 4.19 mg/mL (≈ 19.1 mM)
- pH 24 h ([2]; pH of solubility sample in FaSSIF at 24 h (control 6.53), listed as Compound 1 Form A): 8.03
- pH 24 h ([2]; pH of solubility sample in FeSSIF at 24 h (control 5.01), listed as Compound 1 Form A): 5.52
- pH 24 h ([2]; pH of solubility sample in SGF at 24 h (control 1.19), listed as Compound 1 Form A): 1.20
- pH 24 h ([2]; pH of solubility sample in water at 24 h (control 5.26), listed as Compound 1 Form A): 10.35
- time until dissolved in each medium ([2]; listed as Compound 1 Form A): about 2 hours
- Purity @ 0 d (Area%) ([3]; listed as Compound 1 Form A): 96.09% Area%
- decrease in purity ([3]; 7 d, under both sets of conditions (60° C. and 40° C./75%RH)): ~ 0.3%
- Solid form @ 7 d 40° C./75%RH [3]: unchanged
- Purity @ 7 d (Area%) 40° C./75%RH ([3]; listed as Compound 1 Form A): 95.78% Area%
- Solid form @ 7 d 60° C. [3]: unchanged
- Purity @ 7 d (Area%) 60° C. ([3]; listed as Compound 1 Form A): 95.76% Area%
- Solubility (mg/mL) FaSSIF ([4]; FaSSIF, listed as Compound 1 Form A): ~6.3 mg/mL (≈ 28.7 mM)
- Solubility (mg/mL) FeSSIF ([4]; FeSSIF, listed as Compound 1 Form A): ~9.1 mg/mL (≈ 41.5 mM)
- Solubility (mg/mL) SGF ([4]; SGF, listed as Compound 1 Form A): ~12.7 mg/mL (≈ 57.9 mM)
- Solubility (mg/mL) Water ([4]; water, listed as Compound 1 Form A): ~5.0 mg/mL (≈ 22.8 mM)
- activity at the β2 adrenergic receptor (β2 adrenergic receptor): low concentration partial agonist

SMILES: CC(C)(C)NC[C@H](O)c1cccc(C#N)n1.Cc1ccc(S(=O)(=O)O)cc1 [Compound 5]
- water uptake at 80%RH ([1]; DVS, 25° C.): 1.25%
- water uptake at 90%RH ([1]; DVS, 25° C., 90%RH): 2.77%
- XRPD pattern after DVS testing [1]: remained unchanged
